Measurements reported in paper PMC5218480 (PLoS ONE, 2017).

Test system: MV-4-11 cells
Assay: Gene expression microarray analysis (Affymetrix PrimeView) and GSEA
Type: cell-based, human
Settings: MV-4-11, 48 hours, 1 μM each

Nc1ncn([C@@H]2O[C@H](CO)[C@@H](O)[C@H]2O)c(=O)n1 [azacitidine]
genes up-regulated greater than 2-fold relative to vehicle control: 62 genes
